Results as given in ChEMBL document CHEMBL1128710, “Synthesis of cluster galactosides with high affinity for the hepatic asialoglycoprotein receptor” (J Med Chem, 1995).

experiment: Affinity towards Asialoglycoprotein receptor using in vitro competition assay for [125I]- ASOR binding to the parenchymal liver cells of rat

Compound | Ki [µM]
COC(=O)CCCCC(=O)NCC(=O)NC(CO[C@@H]1O[C@H](CO)[C@H](O)[C@H](O)[C@H]1O)(CO[C@@H]1O[C@H](CO)[C@H](O)[C@H](O)[C@H]1O)CO[C@@H]1O[C@H](CO)[C@H](O)[C@H](O)[C@H]1O | > 390
CC(=O)N[C@@H]1[C@@H](O)[C@@H](O)[C@@H](CO)O[C@H]1O | 870
COC(=O)CCCCC(=O)NCC(=O)NC(COCOCCCO[C@@H]1O[C@H](CO)[C@H](O)[C@H](O)[C@H]1O)(COCOCCCO[C@@H]1O[C@H](CO)[C@H](O)[C@H](O)[C@H]1O)COCOCCCO[C@@H]1O[C@H](CO)[C@H](O)[C@H](O)[C@H]1O | 1.2
COC(=O)CCCCC(=O)NCC(=O)NC(COCOCCOCCO[C@@H]1O[C@H](CO)[C@H](O)[C@H](O)[C@H]1O)(COCOCCOCCO[C@@H]1O[C@H](CO)[C@H](O)[C@H](O)[C@H]1O)COCOCCOCCO[C@@H]1O[C@H](CO)[C@H](O)[C@H](O)[C@H]1O | 11
COC(=O)CCCCC(=O)NCC(=O)NC(COCOCCO[C@@H]1O[C@H](CO)[C@H](O)[C@H](O)[C@H]1O)(COCOCCO[C@@H]1O[C@H](CO)[C@H](O)[C@H](O)[C@H]1O)COCOCCO[C@@H]1O[C@H](CO)[C@H](O)[C@H](O)[C@H]1O | 19
CC(C)CCC[C@@H](C)[C@H]1CC[C@H]2[C@@H]3CC=C4C[C@@H](OC(=O)CCC(=O)NCC(=O)NC(CO[C@@H]5O[C@H](CO)[C@H](O)[C@H](O)[C@H]5O)(CO[C@@H]5O[C@H](CO)[C@H](O)[C@H](O)[C@H]5O)CO[C@@H]5O[C@H](CO)[C@H](O)[C@H](O)[C@H]5O)CC[C@]4(C)[C@H]3CC[C@]12C | 14
COC(=O)CCCCC(=O)NCC(=O)NC(COCOCCOCCOCCOCCO[C@H]1O[C@@H](CO)[C@@H](O)[C@@H](O)[C@@H]1O)(COCOCCOCCOCCOCCO[C@H]1O[C@@H](CO)[C@@H](O)[C@@H](O)[C@@H]1O)COCOCCOCCOCCOCCO[C@H]1O[C@@H](CO)[C@@H](O)[C@@H](O)[C@@H]1O | 0.2

experiment: Affinity towards Asialoglycoprotein receptor using in vitro competition assay for [125I]- ASOR binding to the parenchymal liver cells of rabbit; design: species or system Oryctolagus cuniculus

Compound | Ki [µM]
COC(=O)CCCCC(=O)NCC(=O)NC(CO[C@@H]1O[C@H](CO)[C@H](O)[C@H](O)[C@H]1O)(CO[C@@H]1O[C@H](CO)[C@H](O)[C@H](O)[C@H]1O)CO[C@@H]1O[C@H](CO)[C@H](O)[C@H](O)[C@H]1O | 150
